Experimental findings from patent US10780094B2, “Use of carbonic anhydrase inhibitors for treatment of neurological and psychiatric disorders” (New York University, priority 2016, dated 2020) are described below.

Data set [1] has as its system D3 cells. In words: Mitochondrial and cytoplasmic calcium assay (Rhod-2 AM, Fluo-4 AM). To be noted: highest doses; 45 minutes. Type of data set: cell-based, human. The protocol: This assay was performed as published in [60]. Briefly, cells were plated on 25 mm optical borosilicate poly-L-lysine-coated sterile glass covers, (ThermoFisher, Waltham, Mass., US) at a 70% confluence. 24 hours later, cells were loaded with 5 μM Rhod-2 AM or 2.5 μM Fluo-4 AM on HBSS for 45 minutes. Then, cells were washed twice with HBSS and incubated for another additional 15 minutes on fresh HBSS, without Rhod-2 AM or Fluo-4 AM. After that, HBSS was replaced again by fresh HBSS, glasses were mounted on microscopy chambers and experiments were conducted, after adding the pre-aggregated peptides and/or the drugs. Cells were mounted on Sykes-Moores chambers (BellCo, Vineland, N.J., US) and imaged every 15 seconds for 45 min, at a 20× magnification, using a Nikon fluorescent microscope (Chiyoda, Tokyo, Japan). Images were processed using NIS-Elements and ImageJ software. Due to the rapidity of this experiment, the peptide was pre-aggregated as described above to obtain oligomers before being added to the cells.

The test system of data set [2] is SH-SY5Y cells. In words: Cell Death ELISAplus, Aβ-induced apoptosis (fragmented nucleosomes). Type of data set: cell-based, human. To be noted: for apoptosis in response to Aβ: Example 2/3, Aβ42 challenge, FIG. 17A, 21. The protocol: The extent of apoptosis caused by Aβ in the presence or absence of MTZ was assessed by quantitation of nucleosome formation using Cell Death ELISA^plus (Roche Applied Science, Indianapolis, Ind.). Briefly, after incubation with the peptides, plates were centrifuged in a Beckman J-6B centrifuge (10 min; 1,000 rpm), cells lysed, and DNA-histone complexes (nucleosomes) quantitated by Cell Death ELISA, as previously described (Fossati et al., 2010).
20.000 cells per well were plated on 24-wells plates. The day after, cells were treated with peptides and/or drugs, following the experimental conditions.
20,000 cells per well were plated on 24-wells plates. The day after, cells were treated with peptides and/or drugs, following the experimental conditions.

For data set [3], the system named is TgSwDI mice. Type of data set: in vivo. To be noted: given with diet. The protocol:
The grip strength test was used to measure neuromuscular function and specifically assesses maximal muscle/grip force of the forelimbs (only) or both the fore and hind limbs combined. Motor performance was assessed by the horizontal grasping force applied by the rodent to a specialized stainless steel grid that is connected to a sensitive, electronic force sensor (Bioseb In Vivo Research Instruments). […] With the base of the tail held gently but firmly between thumb and forefinger, the mouse was pulled gently back away from the grid, ensuring that the torso remains horizontal, until the animal loses grip of the grid. For combined fore and hindlimb measurement, the procedure was identical to the forelimb-only procedure except that mouse was lowered to allow both fore and hind paws to attach to the grid before any measurements were taken. […]
To ensure maximal reliability, each measurement of interest (e.g., forelimb or combined) was repeated consecutively for each mouse to obtain 5-6 replicates. […] A truncated mean (mean of replicates after the smallest and largest readings were removed) was calculated for each subject. […]
Mice in each treatment group (WT, Tg, Tg+MTZ, Tg+ATZ) were counted before the beginning of the treatment, at month 2, and at sacrifice (month 16). […]

For data set [4], the system named is D3 cells. In words: ATP measurement (CellTiter-Glo). Type of data set: cell-based, human. To be noted: co-treatment with the peptide; 3 hours. The protocol: (§1) Steady state levels of ATP were estimated using the Cell Titter-Glo, according to manufacturer's instructions. Briefly, 5×10^3 cells per well of both D3 and SHSY cells were plated on 96-wells plates. The day after, cells were treated with either 10 μM Q22 or 50 μM Ab42 peptides, respectively. Peptides were added alone or in combination with increasing concentrations of MTZ (100 and 300 μM) or AZT (30 and 300 μM). Controls were treated with either DMSO or 5 μM oligomycin. After 3 hours of treatment, the plates containing the cells were equilibrated to room temperature for 30 minutes prior to addition of the luciferin/luciferase/cell lysis mixture. Absolute luminescence from quadruplicate experiments was recorded using a SpectraMax plate reader (Molecular Devices, Sunnyvalem Calif., US).

Data set [5] relates to SH-SY5Y cells. The data set is described as follows: ATP measurement (CellTiter-Glo). Type of data set: cell-based, human. To be noted: drug in combination with the peptide; 3 hours. The protocol:
as §1

Data set [6] has as its system TgSwDI mice. In words: Contextual fear conditioning. Type of data set: in vivo, mouse. To be noted: short-term treatment (3 months).
Another data set concerns caspase 9 in D3 cells. In words: Caspase-Glo 9 activity after Aβ challenge. Type of data set: cell-based, human. To be noted: Example 2/3; FIG. 16D, 22. The protocol: Cells were plated at a confluence of 10.000 cells per well in 96-wells microplate luminescence microtiter (ThermoFisher, Waltham, Mass., US). The day after, cells were treated with the peptides and/or drugs for the experimental times. After that, caspase-Glo 9 assay was performed, following the protocol provided from the manufacturer. Luminescence was measured using a FlexStation 3 Multi-Mode Microplate Reader (Molecular devices, Sunnyvalem Calif., US).

In a further data set the test system is EC and SH-SY5Y cultures. The data set is described as follows: Immunofluorescence deconvolution microscopy of CytC and MitoTracker (mitochondrial membrane potential). Type of data set: cell-based, human. To be noted: for loss of mitochondrial membrane potential (red dye internalization): Example 3, cells treated with Aβ. The protocol: Both EC and SH-SY5Y cells were plated on to glass chamber slides (Thermo Fisher Scientific), pre-coated with either collagen-I or poly-d-lysine (for ECs and SH-SY5Y cells respectively). After seeding, cells were allowed to attach for 1 day before treatment with the different peptides for 1-3 days, as above. Cells were washed with ice-cold PBS, fixed with 4% paraformaldehyde (10 min at room temperature) and blocked for 1 h with 20 mg/ml BSA in PBST (PBS containing 0.3% Triton X-100). Slides were further incubated with mouse anti-CytC monoclonal antibody (BD Biosciences; 1:200 dilution in PBST containing 5 mg/ml BSA; 2 h at room temperature) followed by Alexa Fluor® 488-conjugated anti-(mouse IgG) antibody (Invitrogen; 1:200 in PBST with 5 mg/ml BSA; 1 h at room temperature). Fluorescence signals were visualized in a Nikon Eclipse E 800 deconvolution microscope using NIS Elements software (Nikon Instruments) for image acquisition and processing, and AutoQuant (Media Cybernetics) for 3D deconvolution. The effect of methazolamide in preventing the Aβ-induced release of CytC from the mitochondria into the cytoplasm was evaluated in EC and SH-SY5Y cultures. After peptide incubation in the presence and absence of methazolamide (Sigma), release of CytC was visualized by immunofluorescence microscopy and WB analysis, and corroborated by confocal assessment of CytC in conjunction with the mitochondrial marker MitoTracker®.

The mark [7] stands for this setting: Aβ-Iowa(isoD), 1 day, methazolamide starting at 100 μM.

For the compound `CC(=O)Nc1nnc(S(N)(=O)=O)s1` [ATZ, acetazolamide], the “Aβ-induced decrease in mitochondrial and cytoplasmic Ca2+” value in the data set on D3 cells [1] was “counteract the effect exerted by the peptide”. Besides, in the data set with SH-SY5Y cells [2], the “apoptosis in response to Aβ” value is “prevented”. The “signs of toxicity, weight loss or death” value in the data set on TgSwDI mice [3] is “without showing signs of toxicity, weight loss or increased death of the animals”. Further, the “Q22-induced increase in steady state ATP levels” value in the data set with D3 cells [4] is listed as “unaffected”. For the same compound, the “ATP levels under Aβ challenge” value in the data set on SH-SY5Y cells [5] was “remained unchanged”. Moreover, in the data set with TgSwDI mice [6], the “increase of freezing in contextual fear conditioning” value is recorded as “normalizing effect”. The “caspase 9 activation” value in the data set on caspase 9 in D3 cells was “protective effect”. Moreover, the “loss of mitochondrial membrane potential (red dye internalization)” value with EC and SH-SY5Y cultures is “prevented”.
Turning to `CC(=O)/N=c1/sc(S(N)(=O)=O)nn1C` [MTZ, methazolamide], in the data set with D3 cells [1], the “Aβ-induced decrease in mitochondrial and cytoplasmic Ca2+” value is reported as “counteract the effect exerted by the peptide”. Also, the “DNA fragmentation after Aβ challenge” value with SH-SY5Y cells [2] (100 μM MTZ, Aβ42 10 μM or Aβ40-Q22 50 μM, 1 day) is given as “significantly effective at reducing DNA fragmentation”. Moreover, the “Aβ-mediated increase in fragmented nucleosomes” value with SH-SY5Y cells [2] (300 μM MTZ, Aβ42 10 μM or Aβ40-Q22 50 μM, 1 day) is “completely prevented”. Besides, the “apoptosis in response to Aβ” value in the data set with SH-SY5Y cells [2] was “prevented”. Moreover, the “signs of toxicity, weight loss or death” value with TgSwDI mice [3] is “without showing signs of toxicity, weight loss or increased death of the animals”. Moreover, the “Q22-induced increase in steady state ATP levels” value in the data set on D3 cells [4] is on record as “unaffected”. The “ATP levels under Aβ challenge” value with SH-SY5Y cells [5] is listed as “remained unchanged”. In addition, the “increase of freezing in contextual fear conditioning” value in the data set on TgSwDI mice [6] is on record as “normalizing effect”. Besides, the “caspase 9 activation” value in the data set with caspase 9 in D3 cells is “protective effect”. Besides, in the data set with EC and SH-SY5Y cultures (setting [7]), the “mitochondrial membrane potential (MitoTracker localization)” value is on record as “restored the mitochondrial membrane potential” and the “subcellular localization of CytC” value is listed as “preserved the subcellular localization of CytC”. The “loss of mitochondrial membrane potential (red dye internalization)” value in the data set on EC and SH-SY5Y cultures is on record as “prevented”.
